Assay results: patent US7662810B2, “2-arylmethylazetidine carbapenem derivatives and preparation thereof” (Korea Research Institute of Chemical Technology, priority 2004, dated 2010)

What was measured:
[1] = target: T1, Dihydropeptidase-1 (DHP-1) (Sus scrofa, UniProt P22412)
T1 sequence (P22412 17-384): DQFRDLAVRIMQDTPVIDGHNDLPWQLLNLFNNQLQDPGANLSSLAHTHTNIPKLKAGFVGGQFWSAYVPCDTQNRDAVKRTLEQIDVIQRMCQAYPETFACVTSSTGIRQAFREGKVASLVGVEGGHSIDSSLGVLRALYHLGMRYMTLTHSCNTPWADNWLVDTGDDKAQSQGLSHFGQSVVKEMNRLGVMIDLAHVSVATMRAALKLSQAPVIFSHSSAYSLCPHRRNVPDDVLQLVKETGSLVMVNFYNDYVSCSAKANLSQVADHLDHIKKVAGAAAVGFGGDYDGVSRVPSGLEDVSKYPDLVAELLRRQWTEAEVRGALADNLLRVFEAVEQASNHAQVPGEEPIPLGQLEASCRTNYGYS

[2] = tested on: Staphylococcus aureus 694E; assay: Measurement of Minimum Inhibitory Concentration (MIC), MRSA; type: cell-based; settings: Staphylococcus aureus 694E
Protocol: (§1) The antibacterial activities of the compounds of the present invention prepared in the above Examples against Gram-positive and Gram-negative bacteria, MRSA and QRS were tested as follows.
(§2) Respective bacterial strains were inoculated into 3 ml of Fleisch extract broth (beef extract 1%, peptone 1%, NaCl 0.3%, Na2HPO4.12H2O 0.2%, pH 7.4-7.5. 10% horse serum was supplemented for Streptococcus pyogenes and S. facium) and cultured on a shaking incubator at 37° C. for 18 hours. About 10^4 CFU/spot of the cultured bacterial strains were inoculated onto Müller-Hinton agar plates containing serial double dilutions (final concentration of 0.002 to 100 μg/ml) of a test compound employing an automatic inoculator (Dynatech, USA), and incubated at 37° C. for 18 hours. When the incubation was completed, the minimum inhibitory concentration was determined. Meropenem (Yuhan corporation, Korea) and vancomycin (Cj Inco., Korea) were used as standard antibiotics, respectively.

[3] = tested on: Staphylococcus aureus 208E; assay: as above; type: cell-based; settings: Staphylococcus aureus 208E
Protocol: as §1, §2

[4] = tested on: Staphylococcus aureus 121E; assay: as above; type: cell-based; settings: Staphylococcus aureus 121E
Protocol: as §1, §2

[5] = tested on: Staphylococcus aureus 256E; assay: as above; type: cell-based; settings: Staphylococcus aureus 256E
Protocol: as §1, §2

[6] = tested on: Staphylococcus aureus 88E; assay: as above; type: cell-based; settings: Staphylococcus aureus 88E
Protocol: as §1, §2

[7] = tested on: Staphylococcus aureus 695E; assay: as above; type: cell-based; settings: Staphylococcus aureus 695E
Protocol: as §1, §2

[8] = tested on: Staphylococcus aureus 690E; assay: as above; type: cell-based; settings: Staphylococcus aureus 690E
Protocol: as §1, §2

[9] = tested on: Staphylococcus aureus 692E; assay: as above; type: cell-based; settings: Staphylococcus aureus 692E
Protocol: as §1, §2

[10] = tested on: Staphylococcus aureus 697E; assay: as above; type: cell-based; settings: Staphylococcus aureus 697E
Protocol: as §1, §2

[11] = tested on: Staphylococcus aureus 693E; assay: as above; type: cell-based; settings: Staphylococcus aureus 693E
Protocol: as §1, §2

[12] = tested on: Staphylococcus epidermidis 178; assay: Measurement of Minimum Inhibitory Concentration (MIC), QRS; type: cell-based; settings: QRS, Staphylococcus epidermidis 178
Protocol: as §1, §2

[13] = tested on: Staphylococcus aureus 293; assay: as above; type: cell-based; settings: QRS, Staphylococcus aureus 293
Protocol: as §1, §2

[14] = tested on: Staphylococcus epidermidis 291; assay: as above; type: cell-based; settings: QRS, Staphylococcus epidermidis 291
Protocol: as §1, §2

[15] = tested on: Staphylococcus aureus 179; assay: as above; type: cell-based; settings: QRS, Staphylococcus aureus 179
Protocol: as §1, §2

[16] = tested on: Staphylococcus aureus 241; assay: as above; type: cell-based; settings: QRS, Staphylococcus aureus 241
Protocol: as §1, §2

[17] = tested on: Klebsiella aerogenes 1522 E; assay: Measurement of Minimum Inhibitory Concentration (MIC); type: cell-based
Protocol: as §1, §2

[18] = tested on: Enterobacter cloacae P 99; assay: as above; type: cell-based
Protocol: as §1, §2

Escherichia coli DC 2 = assay: as above; type: cell-based
Protocol: as §1, §2

[19] = tested on: Staphylococcus pyogenes 77A; assay: as above; type: cell-based; settings: Staphylococcus pyogenes 77A
Protocol: as §1, §2

Escherichia coli 1507 E = assay: as above; type: cell-based
Protocol: as §1, §2

Escherichia coli DC 0 = assay: as above; type: cell-based
Protocol: as §1, §2

[20] = tested on: Enterobacter cloacae 1321 E; assay: as above; type: cell-based
Protocol: as §1, §2

[21] = tested on: Staphylococcus faecium MD 8b; assay: as above; type: cell-based; settings: Staphylococcus faecium MD 8b
Protocol: as §1, §2

[22] = tested on: Salmonella typhimurium 179; assay: as above; type: cell-based; settings: Salmonella typhimurium 179
Protocol: as §1, §2

[23] = tested on: Staphylococcus aureus 285; assay: as above; type: cell-based
Protocol: as §1, §2

Escherichia coli 078 = assay: as above; type: cell-based
Protocol: as §1, §2

[24] = tested on: Staphylococcus aureus 503; assay: as above; type: cell-based
Protocol: as §1, §2

[25] = tested on: Staphylococcus pyogenes 308A; assay: as above; type: cell-based; settings: Staphylococcus pyogenes 308A
Protocol: as §1, §2

[26] = tested on: Klebsiella oxytoca 1082 E; assay: as above; type: cell-based
Protocol: as §1, §2

Escherichia coli TEM = assay: as above; type: cell-based; settings: Escherichia coli TEM
Protocol: as §1, §2

Row | Relative T1/2 [1] | Compound | T1/2 (time when the concentration of the medicament become the half) [1] | MIC [2] | MIC [3] | MIC [4] | MIC [5] | MIC [6] | MIC [7] | MIC [8] | MIC [9] | MIC [10] | MIC [11] | MIC [12] | MIC [13] | MIC [14] | MIC [15] | MIC [16] | MIC [17] | MIC [18] | MIC (Escherichia coli DC 2) | also measured
1 | 1.54 | COc1cccc(CN2CC(SC3=C(C(=O)[O-])N4C(=O)[C@H]([C@@H](C)O)[C@H]4[C@H]3C)C2)c1.[K+] [Exam. 15, Potassium(1R,5S,6S)-2-[1-(3-methoxybenzyl)-azetidine-3-yl-thio]-6-[(1R)-1-hydroxylethyl]-1-methylcarbapen-2-em-3-carboxylate] | 28.16 |  |  |  |  |  |  |  |  |  |  |  |  |  |  |  |  |  |  | 
2 |  | COc1ccccc1CN1CC(SC2=C(C(=O)[O-])N3C(=O)[C@H]([C@@H](C)O)[C@H]3[C@H]2C)C1.[K+] [Exam. 16, Potassium(1R,5S,6S)-2-[1-(2-methoxybenzyl)-azetidine-3-yl-thio]-6-[(1R)-1-hydroxylethyl]-1-methylcarbapen-2-em-3-carboxylate] | 200.91 | 0.049 µg/mL | 0.025 µg/mL | 0.025 µg/mL | 0.025 µg/mL | 0.025 µg/mL | 0.049 µg/mL | 0.195 µg/mL | 0.049 µg/mL | 0.025 µg/mL | 1.563 µg/mL | 0.195 µg/mL | 0.098 µg/mL | 0.391 µg/mL | 0.049 µg/mL | 0.025 µg/mL | 0.391 µg/mL | 0.391 µg/mL | 0.049 µg/mL | stability against hydrolysis by DHP-1 (in words) [1]: very stable; MIC [19]: 0.002 µg/mL; MIC (Escherichia coli 1507 E): 0.195 µg/mL; MIC (Escherichia coli DC 0): 0.781 µg/mL; MIC [20]: 0.098 µg/mL; MIC [21]: 1.563 µg/mL; MIC [22]: 0.098 µg/mL; MIC [23]: 0.025 µg/mL; MIC (Escherichia coli 078): 0.098 µg/mL; MIC [24]: 0.013 µg/mL; MIC [25]: 0.002 µg/mL; MIC [26]: 0.098 µg/mL; MIC (Escherichia coli TEM): 0.195 µg/mL
3 |  | COc1ccc(CN2CC(SC3=C(C(=O)[O-])N4C(=O)[C@H]([C@@H](C)O)[C@H]4[C@H]3C)C2)cc1OC.[K+] [Exam. 17, Potassium(1R,5S,6S)-2-[1-(3,4-dimethoxybenzyl)-azetidine-3-yl-thio]-6-[(1R)-1-hydroxylethyl]-1-methylcarbapen-2-em-3-carboxylate] | 27.45 | 0.098 µg/mL | 0.049 µg/mL | 0.098 µg/mL | 0.049 µg/mL | 0.195 µg/mL | 0.098 µg/mL | 0.781 µg/mL | 0.195 µg/mL | 0.098 µg/mL | 0.391 µg/mL | 0.781 µg/mL | 0.391 µg/mL | 1.563 µg/mL | 0.098 µg/mL | 0.195 µg/mL | 0.391 µg/mL | 0.781 µg/mL | 0.049 µg/mL | MIC [19]: 0.002 µg/mL; MIC (Escherichia coli 1507 E): 0.391 µg/mL; MIC (Escherichia coli DC 0): 0.781 µg/mL; MIC [20]: 0.391 µg/mL; MIC [21]: 1.563 µg/mL; MIC [22]: 0.098 µg/mL; MIC [23]: 0.025 µg/mL; MIC (Escherichia coli 078): 0.098 µg/mL; MIC [24]: 0.013 µg/mL; MIC [25]: 0.002 µg/mL; MIC [26]: 0.098 µg/mL; MIC (Escherichia coli TEM): 0.391 µg/mL
4 | 0.84 | C[C@@H](O)[C@H]1C(=O)N2C(C(=O)[O-])=C(SC3CN(Cc4ccc(Cl)cc4)C3)[C@H](C)[C@H]12.[K+] [Exam. 18, Potassium(1R,5S,6S)-2-[1-(4-chlorobenzyl)-azetidine-3-yl-thio]-6-[(1R)-1-hydroxylethyl]-1-methylcarbapen-2-em-3-carboxylate] | 15.36 |  |  |  |  |  |  |  |  |  |  |  |  |  |  |  |  |  |  | 
